pIC50: −log10 of the molar value. Counter-ions that a name gives are not always drawn.
Assays:
CD3-Blasts = assay: CD3-Blast chemotaxis assay (transendothelial migration to MCP-1); type: cell-based; conditions: ECV-304; migration of human CD3-Blasts to about 10 nM MCP-1 across ECV304 endothelial cells, approximately 1 hour
From the text: CD3—Blast Chemotaxis Assay
Recombinant human MCP-1 was obtained from Peprotech (Rockey Hill, N.J.). T lymphocyte blast cells (CD3-Blasts) were generated by standard protocols (Coligan, J. E., A. M. Kruisbeek, D. H. Macgulies, E. M. Shevach, and W. Strober, editors. 1992. Current Protocols in Immunology. John Wiley and Sons, New York, 7.1.2, 7.10.1-7.10.10). Briefly, human peripheral blood mononuclear cells (PBMC) were isoltated from heparinized venous blood by Percoll density gradient centrifugation (d=1.088) at room temperature. RBCs were removed by hypotonic lysis or Dextran sedimentation. […] CD3-Blast chemotaxis was assessed no sooner than 3 to 4 days after transfer to the IL-2 containing medium using a modification of a transendothelial migration assay (Carr. M. W., S. J. Roth, B. Luther, S. S. Rose, and T. A. Springer. 1994. Monocyte chemoattractant protein 1 acts as a T-lymphocyte chemoattractant. Proc. Natl. Acad. Sci. USA 91:3652-6). […] Background migration was determined by counting cells that migrated in the absence of MCP-1 in the lower chamber. […] The percent inhibition by compounds of directed migration was determined by the following formula: [formula] […]

[1] = tested on: T cell recruitment to skin DHR sites; assay: Inhibition of T cell recruitment to rat skin inflammatory (DHR) sites; type: in vivo
Procedure: Inhibition of T Cell Recruitment to Rat Skin Inflammatory Sites by Compound 1
Inbred, approximately 200 gm, male Lewis rats were used in all experiments. Cutaneous delayed hypersensitivity (DHR) was induced as previously described (1). Briefly, rats were sensitized to KLH (Sigma Chemical Co., St. Louis, Mo.) by administering 50 μg KLH in 0.1 ml complete Freund's adjuvant (CFA; Sigma Chemical Co.) into each of 4 subcutaneous sites. After 14 days, DHR was elicited by the challenge of 5 μg KLH in PBS into multiple intradermal sites on the back. Analysis was performed 24 hours after antigen challenge. For each experiment, there were at least three groups of animals of at least four animals in each group. […]
T cell recruitment at sites of DHR was quantified using methods previously described (1-4). […] The cells in the effluent were highly purified (>95%) rat T cells as assessed by anti-rat CD3 (monoclonal antibody KT3, Biosource International, Camarillo, Calif.) immunoreactivity by flow cytometry. […] Skin challenge sites (8 mm in diameter) were counted on a γ counter 24 hours after injection of radiolabeled T cells. Lung, liver, and spleen were also collected and counted as comparative indices for evaluation of input.
Statistical significance was determined using a paired Student's t-test. […]

- pIC50 (CD3-Blasts): 4.64
SMILES: O=C(/C=C/C=C/c1ccc(Cl)c(Cl)c1)NCCCN1CCCCC1 [Example 1, 5-(3,4-Dichloro-phenyl)-penta-2,4-dienoic Acid (3-piperidin-1-yl-propyl)-amide-HCl]
- inhibition of T cell recruitment in rat DHR (result in words) ([1]; 30 mg/kg per os at time of antigen challenge, 24 hour period, FIG. 2): statisticallly significant inhibitory effect
- inhibition of recruitment of 111In-labeled rat T cells to skin DHR sites ([1]; Lewis rats, 30 mg/kg once per os at time of antigen (KLH) challenge, 24 hours, P<0.05, dose-dependent): approximately 80%

Source: patent US6458806B1, “Aryl alkenamides derivatives as MCP-1 antagonists” (Millennium Pharmaceuticals, Inc., priority 1996, dated 2002)
